Source: patent US9855273B2, “Combination therapy for MDS” (priority 2013, dated 2018)

Legend:
BCL2 = conditions: 10 μM
Description: (§1) Total protein lysates were obtained from cells by lysing the samples in cold RIPA buffer (50 mM Tris-HCl, 150 mM NaCl, 1 mM EDTA, 1% Triton X-100 and 0.1% SDS), in the presence of PMSF, sodium orthovanadate, protease and phosphatase inhibitors. After being re-suspended in RIPA cells were briefly sonicated. Protein concentration was evaluated by a BCA assay (Pierce). For immunoprecipitation, TRAF6 or IRAK1 antibodies (2 μg) were added to cell lysates (10 mg) for 3 h at 4° C. and captured by the addition of Protein A/G Plus beads (sc-2003; Santa Cruz) as described before (Starczynowski et al., 2011). The immune complexes were washed with lysis buffer followed by the addition of SDS sample buffer. The bound proteins were separated by SDS-polyacrylamide gel electrophoresis, transferred to nitrocellulose membranes, and analyzed by immunoblotting. Western blot analysis was performed with the following antibodies: TRAF6 (sc-7221; Santa Cruz), IRAK1 (sc-7883; Santa Cruz), ubiquitin (sc-8017; Santa Cruz), IKKβ (2370; Cell Signaling Technology), GAPDH (5174; Cell Signaling Technology), p38 MAPK (9212; Cell Signaling Technology), phopho-p38 MAPK (4631; Cell Signaling Technology), phospho-IKKα/β (2697; Cell Signaling Technology), phospho-IRAK1 (S376) (PAB0497; Abnova), phospho-IRAK1 (T209) (A1074; AssaybioTech), phospho-ERK (4695; Cell Signaling Technology), Lck (2752; Cell Signaling Technology), phospho-Lck (Tyr505) (2751; Cell Signaling Technology), IRAK4 (4363; Cell Signaling Technology), phospho-IRAK4 (Thr345/Ser346) (7652; Cell Signaling Technology), Src (2102; Cell Signaling Technology), Phospho-Src (Tyr416) (2113; Cell Signaling Technology), BCL-2 (2870; Cell Signaling Technology) and Actin (4968; Cell Signaling Technology).

IRAK1 (pIRAK1T209) = IRAK1 (pIRAK1T209) (Homo sapiens, UniProt P51617)
Description: as §1

TRAF6/NF-κB signaling = system: TRAF6/NF-κB signaling
Description: as §1

MDS patient marrow cells [1] = conditions: 48 hrs
Description: (§2) Annexin V analysis was carried out as previously described (Fang et al., 2012). Cells were stained after either drug treatment or lentiviral transduction with Annexin V (eBioscience) and propidium iodide (Sigma-Aldrich), or 7AAD (eBioscience) according to the manufacturer's instructions. Analysis was performed using BD FACSCalibur or FACSCanto flow cytometer with either CellQuest or Diva software. For in vitro growth assays, cell expansion in liquid culture was determined based on trypan blue exclusion using an automated cell counter (BioRad TC10). For experiments beyond 48 hrs, cells were replenished with fresh media and drug every second day. For primary patient marrow cells, cell were treated with a single inhibitor dose and counted 24 and 48 hours later. NF-κB DNA-binding assay Nuclear lysates were isolated from treated cells as previously described (Starczynowski et al., 2011). NF-κB (p65) DNA binding was measured using an ELISA-based assay according to the manufacturer's recommendations (KHO0371, Invitrogen)

NF-κB (RelA/p65) = conditions: MDS/AML cell lines (THP1, HL60), 10 μM, 24 hrs
Description: as §2

[2] = system: MDS/AML cell lines (MDSL, TF1, THP1, HL60); test: Viable cell growth (trypan blue exclusion) of MDS/AML cell lines; type: cell-based, human
Description: Acute myeloid leukemic cell lines, HL60, THP1, and TF-1 were purchased from the American Type Culture Collection. MOLM13 were purchased from AddexBio. The myelodysplastic cell line, MDS-L, was provided by Dr. Kaoru Tohyama (Kawasaki Medical School, Okayama, Japan) (Matsuoka et al., 2010). […] Additionally, both the MDSL and TF-1 cell lines were cultured in the presence of 10 ng/mL human recombinant IL-3 (Stemcell Technologies).

MDSL cells = test: Cell cycle analysis by BrdU/7AAD; type: cell-based, human; conditions: 10 μM, up to 6 days
Description: MDS/AML cell lines with hyperphosphorylated IRAK1 (FIG. 1D) were evaluated for sensitivity to IRAK-Inh. MDS/AML cell lines exposed to increasing concentration of IRAK-Inh were cultured for up to 6 days in vitro (FIG. 3A). […] In support of this observation, the inhibitory effect of IRAK-Inh on the cell lines correlated with the level of phosphorylated IRAK1 (R2=0.36; FIG. 3B). In parallel, cell viability was examined after 48 hrs of treatment with the IRAK-Inh. […] To investigate whether IRAK-Inh affects cell cycle progression, MDSL cells were treated with 10 μM IRAK-Inh for up to 6 days and evaluated by BrdU/7AAD staining (FIG. 3D).

AML patient cells = test: Colony formation in methylcellulose, primary AML cells; type: cell-based, human
Description: (§3) We evaluated marrow cells from 7 MDS and 3 AML patient samples with various cytogenetic features to determine whether IRAK1 inhibition is also effective in primary patient cells (Table S1). […] Since MDS and AML stem/progenitor cells are clonal and the disease-propagating cells form colonies in methylcellulose, we also evaluated the effects of IRAK-Inh on colony formation.

IRAK4 = IRAK4 (Homo sapiens, UniProt Q9NWZ3); conditions: read-out: IC50 IRAK4; Powers et al., 2006; cited from earlier work
pp60^Src = pp60^Src (Homo sapiens, UniProt P12931); conditions: read-out: IC50 pp60Src; Powers et al., 2006; cited from earlier work
Lck = Lck (Homo sapiens, UniProt P06239); conditions: read-out: IC50 Lck; Powers et al., 2006; cited from earlier work
normal CD34+ cells = test: Colony formation in methylcellulose, normal CD34+ cells
Description: The effect of IRAK-Inh on leukemic progenitor function was evaluated in methylcellulose containing IRAK-Inh. […] As an alternative approach, MDS/AML cells were pre-treated with IRAK-Inh for 24 hours and then plated in methylcellulose.

MDS patient marrow cells [3] = test: Colony formation in methylcellulose, primary MDS marrow cells; conditions: continuously treated or briefly exposed
Description: as §3

Sequence of IRAK1 (pIRAK1T209) (P51617 whole entry): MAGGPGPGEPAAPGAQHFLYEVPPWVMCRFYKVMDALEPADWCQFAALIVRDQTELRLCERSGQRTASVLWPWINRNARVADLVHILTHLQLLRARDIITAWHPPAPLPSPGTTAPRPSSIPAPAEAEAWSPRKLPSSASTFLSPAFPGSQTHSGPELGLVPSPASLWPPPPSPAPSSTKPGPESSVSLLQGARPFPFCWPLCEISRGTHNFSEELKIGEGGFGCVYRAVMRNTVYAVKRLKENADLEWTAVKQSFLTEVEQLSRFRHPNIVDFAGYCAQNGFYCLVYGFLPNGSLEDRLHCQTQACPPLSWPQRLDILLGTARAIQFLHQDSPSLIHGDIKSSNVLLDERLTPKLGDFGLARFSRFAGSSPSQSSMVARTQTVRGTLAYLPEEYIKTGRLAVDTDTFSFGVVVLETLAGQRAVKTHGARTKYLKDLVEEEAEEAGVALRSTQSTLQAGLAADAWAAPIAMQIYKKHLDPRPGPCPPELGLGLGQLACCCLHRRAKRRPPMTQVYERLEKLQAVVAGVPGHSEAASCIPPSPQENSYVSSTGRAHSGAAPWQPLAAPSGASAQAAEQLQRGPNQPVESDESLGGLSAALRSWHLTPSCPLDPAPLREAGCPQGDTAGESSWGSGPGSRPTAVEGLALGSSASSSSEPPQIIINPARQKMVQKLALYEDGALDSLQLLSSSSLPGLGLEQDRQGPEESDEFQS
Sequence of IRAK4 (Q9NWZ3 whole entry, species assumed): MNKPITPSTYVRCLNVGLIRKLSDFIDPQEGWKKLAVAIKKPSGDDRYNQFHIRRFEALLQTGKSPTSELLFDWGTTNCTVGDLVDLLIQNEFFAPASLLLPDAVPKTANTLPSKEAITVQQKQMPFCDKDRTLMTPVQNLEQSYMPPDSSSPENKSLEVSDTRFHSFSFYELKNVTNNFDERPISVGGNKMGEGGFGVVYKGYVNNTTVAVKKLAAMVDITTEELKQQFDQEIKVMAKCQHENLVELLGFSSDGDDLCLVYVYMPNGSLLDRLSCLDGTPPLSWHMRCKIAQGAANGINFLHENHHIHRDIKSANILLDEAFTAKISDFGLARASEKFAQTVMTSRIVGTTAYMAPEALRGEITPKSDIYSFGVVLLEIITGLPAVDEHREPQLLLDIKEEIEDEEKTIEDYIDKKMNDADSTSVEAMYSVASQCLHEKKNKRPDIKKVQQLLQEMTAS
Sequence of pp60^Src (P12931 whole entry): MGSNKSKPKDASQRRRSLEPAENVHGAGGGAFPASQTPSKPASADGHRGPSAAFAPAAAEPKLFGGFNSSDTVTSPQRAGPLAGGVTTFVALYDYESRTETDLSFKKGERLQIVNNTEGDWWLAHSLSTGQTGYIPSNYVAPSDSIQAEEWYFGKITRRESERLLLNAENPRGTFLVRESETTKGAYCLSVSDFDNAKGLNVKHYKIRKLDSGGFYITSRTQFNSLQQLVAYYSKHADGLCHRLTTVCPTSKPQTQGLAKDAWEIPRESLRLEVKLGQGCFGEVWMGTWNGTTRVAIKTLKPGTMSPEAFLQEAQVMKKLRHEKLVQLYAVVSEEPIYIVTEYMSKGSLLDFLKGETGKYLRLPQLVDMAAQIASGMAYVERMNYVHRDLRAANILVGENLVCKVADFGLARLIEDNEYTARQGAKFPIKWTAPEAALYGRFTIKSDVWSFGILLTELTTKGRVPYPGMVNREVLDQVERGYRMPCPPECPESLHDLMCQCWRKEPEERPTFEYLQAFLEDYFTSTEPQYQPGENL
Sequence of Lck (P06239 whole entry, species assumed): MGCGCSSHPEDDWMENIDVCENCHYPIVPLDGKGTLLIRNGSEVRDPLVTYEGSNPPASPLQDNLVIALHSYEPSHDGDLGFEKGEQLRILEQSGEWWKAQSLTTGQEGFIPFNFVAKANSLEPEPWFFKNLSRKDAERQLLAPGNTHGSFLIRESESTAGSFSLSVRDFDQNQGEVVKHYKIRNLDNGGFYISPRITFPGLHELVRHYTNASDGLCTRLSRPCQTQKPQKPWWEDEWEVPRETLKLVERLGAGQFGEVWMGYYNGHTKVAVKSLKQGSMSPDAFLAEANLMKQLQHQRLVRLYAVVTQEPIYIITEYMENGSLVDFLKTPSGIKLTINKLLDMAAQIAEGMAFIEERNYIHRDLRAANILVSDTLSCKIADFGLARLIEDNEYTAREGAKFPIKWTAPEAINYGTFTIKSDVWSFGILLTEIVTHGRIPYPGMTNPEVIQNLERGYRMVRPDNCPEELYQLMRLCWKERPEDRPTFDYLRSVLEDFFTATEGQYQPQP

With `O=C(Nc1nc2ccccc2n1CCN1CCOCC1)c1cccc([N+](=O)[O-])c1` [IRAK-Inh, N-(2-morpholinylethyl)-2-(3-nitrobenzoylamido)-benzimidazole] the BCL2 expression (BCL2) was “increased in several of the cell lines examined”, the “phosphorylated IRAK1 reduced by” value (IRAK1 (pIRAK1T209); 10 μM, 24 hrs, cell lines and patient marrow cells) was about 70% and the “phosphorylation and K63-linked ubiquitination of immunoprecipitated IRAK1” value (IRAK1 (pIRAK1T209); THP1, 10 μM, 24 hrs) was “reduced phosphorylation and K63-linked ubiquitination”. The “pIRAK1T209 inhibited by” value (IRAK1 (pIRAK1T209); cells with lentiviral IRAK1 or TRAF6 overexpression) was about 50%, the “kinases with structural homology to IRAK1 targeted in cells” value (IRAK1 (pIRAK1T209); malignant myeloid cells, IRAK1, IRAK4, Src, Lck immunoblots) was “only IRAK1 is a target” and the “p100/p52 processing (non-canonical NF-κB)” value (TRAF6/NF-κB signaling; 10 μM for 24 hrs) was “completely blocked”. The pIKKα/IKKβ (TRAF6/NF-κB signaling; 10 μM for 24 hrs, vector- and TRAF6-expressing cells) was “reduced pIKKα/IKKβ”, the “polyubiquitinated TRAF6” value (TRAF6/NF-κB signaling; THP1, 10 μM, 24 hrs) was “reduced polyubiquitinated TRAF6” and the “expansion of MDS marrow cells” value (MDS patient marrow cells [1]) was “failed to expand”. The “apoptotic cells in MDS marrow cells” value (MDS patient marrow cells [1]; except for MDS-07) was “increased levels of apoptotic cells”, the “DNA bound and active RelA/p65 decreased by” value (NF-κB (RelA/p65)) was about 50% and the “viability of HL60 cells” value ([2]; HL60) was “only modestly reduced”. For the same compound, the “sensitivity of HL60 cells” value ([2]; HL60, IRAK-Inh 10 μM, ABT-263 0.1 μM, alone or combined) was “refractory”, the “MDS/AML cell line growth and survival” value ([2]; IRAK-Inh 10 μM, ABT-263 0.1 μM, alone or co-treatment) was “modest effects” and the cell proliferation ([2]; MDSL, TF1 and THP1, 0-10 μM, up to 6 days) was “dose-dependent impairment”. For the same compound, the “proportion in G0/G1” value (MDSL cells) was 62.7%±1.1, the “proportion of sub-G0 cells” value (MDSL cells) was 5.4%±0.3 and the “viable cells in S phase” value (MDSL cells) was 4.3%±0.4. For the same compound, the AML progenitor function (AML patient cells) was “did not affect”, the “leukemic progenitor function of AML patient cells” value (AML patient cells; IRAK-Inh 10 μM, ABT-263 0.1 μM) was “not sensitive” and the IC50 (IRAK4) was 0.2 µM. The IC50 (pp60^Src) was over 10 µM, the IC50 (Lck) was over 10 µM and the “control CD34+ cell progenitor function” value (normal CD34+ cells) was “did not affect”. For the same compound, the “colony formation, methylcellulose containing inhibitor” value (normal CD34+ cells; normal CD34+) was “equivalent number of colonies” and the “colony formation of MDS marrow cells” value (MDS patient marrow cells [3]) was “significantly fewer colonies”.
